# In patent US20150238447A1, “BETA-HYDROXY-BETA-METHYLBUTRYIC ACID-CONTAINING COMPOSITIONS AND USES THEREOF” (ABBOTT LABORATORIES, priority 2012, published 2015):
# System: mice fed a high fat diet
# Assay: motor (exploratory) activity in activity monitoring chamber, Opto-Varimex 4
# Format: in vivo
# Conditions: high fat diet plus Ca-HMB (170 or 340 mg/kg of drinking water) compared to high fat diet alone; 30 minutes observation
# Method: The mice arrived at the facility at 21 days post birth and were divided into 6 groups after a seven day quarantine. There were 5 animals each. […] were placed on the following diets:
# Group 1: High Fat Diet alone;
# Group 2: High Fat Diet plus 500 mg of leucine/kg of drinking water;
# Group 3: High Fat Diet plus 1000 mg of leucine/kg of drinking water;
# Group 4: High Fat Diet plus 170 mg of Ca-HMB/kg of drinking water;
# Group 5: High Fat Diet plus 340 mg of Ca-HMB/kg of drinking water; and
# One week before the initiation of the study, the animals were acclimatized in the activity monitoring chamber, daily for half an hour. On the day of experiment, each set of animals were placed in the activity monitoring chamber (chamber 1 to 5) for half an hour. Motor activity of the mice in each group was monitored using the Actometry Apparatus: “Opto-Varimex 4” Auto-track system, Model No: 0271-004M. The motor activity of each mouse was monitored once in a week between 8:30 AM and 12:00 PM for 30 minutes. Six sets of “half an hour observations” were made for each of the 30 animals. The software captured motor activity parameters while the animals were in the activity monitoring chamber.
smiles,measurement,value
"CC(C)(O)CC(=O)O [HMB, beta-hydroxy-beta-methylbutyric acid]",exploratory activity,enhanced exploratory activity
